A word on the inhibition: it is the share of the control response that was lost under treatment. Broadly, the IC50 is the concentration at which inhibition is half-maximal. As a reminder, the IC30 is the point of the concentration-response curve where the effect stands at 30%.

The target in data set [1] is prejunctional GABAB receptors (Cavia porcellus, UniProt A0A286X9P6). Description: In Vitro Assay (guinea pig trachea, reversal of baclofen inhibition of EFS-induced contractions). It is filed as cell-based, guinea pig (male Hartley). As to conditions: 30 μmol/L baclofen; for IC30: guinea pig trachea. The method, then:
Male Hartley guinea pigs (450-650 g) are sacrificed by stunning and the trachea removed proximal to the carina and cut into 5 mm segments. The segments are attached to isometric force displacement transducers (Model FT03: Grass Instruments) and suspended in 15 mL organ baths filled with low Ca^2+ (0.6 mmol/L) Tyrode's buffer solution (pH 7.4) supplemented with 5.6 mmol/L glucose, 30 μmol/L choline and 2 μmol/L indomethacin. The solution is bubbled with a mixture of 95% O2 +5% CO2 and maintained at 37° C. The tracheal segments are allowed to equilibrate for 90 minutes under a resting tension of 0.5 g.
Platinum electrodes are placed on either side of the trachea and electrical field stimulation (EFS) (20 V, 8 Hz, 0.5 ms pulse for 5 s) was generated each minute from an electrical stimulator (Model S-88: Grass Instruments) and delivered to the electrodes through a stimulus distributor (Buxco Electronics). The stimulation parameters are chosen as appropriate for producing cholinergic contractions of the trachea that are sensitive to the inhibitory effects of compounds acting at prejunctional GABAB receptors. Contractile responses were recorded on a polygraph (Harvard Apparatus). The compound to be tested is added to the bath 10 min. before addition of 30 μmol/L baclofen. The effect of baclofen treatment in the absence or in the presence of the compound to be tested is expressed as a percent inhibition of EFS-induced contractions.

In another data set the target is T1, GABAB receptors (Rattus norvegicus, UniProt Q9Z0U4).
T1 construct: Rat brain synaptosomes are used as a source of GABAB receptors; from tissue; host or cells: rat brain synaptosomes
Description: GABAB Receptor Binding Assay ([3H]GABA, rat brain synaptosomes). Here is the method:
GABAB Receptor Binding Assay
The percentage inhibition of GABA binding to GABAB receptors is measured by tritiated GABA ([^3 H]GABA) determination of the degree of binding by scintillation counting. Rat brain synaptosomes are used as a source of GABAB receptors. An incubation medium is prepared from the following: 20 μg/mL of the compound to be tested as a solution in 1% DMSO/water; 5 nM [^3 H]GABA; 50 mM Tris buffer (pH 7.5); and 2.5 mM CaCl2. The medium also contains 40 μM isoguvacine to selectively block binding to GABAA receptors. The synaptosome (200 μg/mL) is added to the incubation medium and incubated for 30 minutes at 20° C. The incubation is terminated by filtration and counted to determine the percentage inhibition of [^3 H]-GABA binding. The results are reported as IC50 values for those compounds inhibiting [^3 H]-GABA binding by >50%.

In data set [2] the test system is Respiratory Depressant Effect of Baclofen. Description: Inhibition of Respiratory Depressant Effect of Baclofen. As to conditions: baclofen alone (3 mg/kg, sc). Type of data set: in vivo, guinea pig. The method, then: (§1) Animal Model for Respiratory Depression:
Place unanesthetized guinea pigs in a head-out plethysmograph and expose to a CO2 enriched gas mixture (10% CO2, 21% O2, 69% N2) for 10 min., (see Danko, et al., J. Pharm. Methods, 19, 165-173 (1988)). Plethysmograph pressure is detected with a transducer connected to a chart recorder. Minute ventilation is calculated as the product of tidal volume and respiratory frequency. The compound to be tested is administered orally, subcutaneously (sc), intraperitoneally (ip) or via an intracerebroventricular route (icv). Baclofen (3 mg/kg, sc) was given 30 min before exposure to the CO2 enriched gas. […] A 40 or 30 min. preteratment is used for the subcutaneous and intraperitoneal routes, respectively. The vehicle for oral, sc or ip administration is saline. For icv administration, single icv cannulae are placed in the lateral ventricle of anesthetized guinea pigs, (see McLeod, et al., Eur. J. Pharmacol., 209, 141-142 (1988)). The animals are allowed to recover approximately one week prior to use for ventilation experiments. The vehicle for icv administration is artificial cerebrospinal fluid (CSF).

Data set [3] has the same test system. Description: Reversal of the Respiratory Depressant Effect of Baclofen via icv Administration. Type of data set: in vivo, guinea pig. As to conditions: baclofen plus vehicle. Here is the method:
as §1
Place unanesthetized guinea pigs in a head-out plethysmograph and expose to a CO2 enriched gas mixture (10% CO2, 21% O2, 69% N2) for 10 min., (see Danko, et al., J. Pharm. Methods, 19, 165-173 (1988)). Plethysmograph pressure is detected with a transducer connected to a chart recorder. Minute ventilation is calculated as the product of tidal volume and respiratory frequency. The compound to be tested is administered orally, subcutaneously (sc), intraperitoneally (ip) or via an intracerebroventricular route (icv). Baclofen (3 mg/kg, sc) was given 30 min before exposure to the CO2 enriched gas. When given by the oral route, the compounds is administered 1, 3, 5 or 7 h before exposure to CO2 enriched gas. A 40 or 30 min. preteratment is used for the subcutaneous and intraperitoneal routes, respectively. The vehicle for oral, sc or ip administration is saline. For icv administration, single icv cannulae are placed in the lateral ventricle of anesthetized guinea pigs, (see McLeod, et al., Eur. J. Pharmacol., 209, 141-142 (1988)). The animals are allowed to recover approximately one week prior to use for ventilation experiments. The vehicle for icv administration is artificial cerebrospinal fluid (CSF).

The next data set has as its system GABAB. The following applies: literature, in words; cited from earlier work.
The conditions of data set [4]: literature (Olpe, et al), in words; cited from earlier work.
Setting [5] is: 5 nM [3H]GABA, rat brain synaptosomes, 20° C., 30 min.

Sequence of prejunctional GABAB receptors (A0A286X9P6 30-844): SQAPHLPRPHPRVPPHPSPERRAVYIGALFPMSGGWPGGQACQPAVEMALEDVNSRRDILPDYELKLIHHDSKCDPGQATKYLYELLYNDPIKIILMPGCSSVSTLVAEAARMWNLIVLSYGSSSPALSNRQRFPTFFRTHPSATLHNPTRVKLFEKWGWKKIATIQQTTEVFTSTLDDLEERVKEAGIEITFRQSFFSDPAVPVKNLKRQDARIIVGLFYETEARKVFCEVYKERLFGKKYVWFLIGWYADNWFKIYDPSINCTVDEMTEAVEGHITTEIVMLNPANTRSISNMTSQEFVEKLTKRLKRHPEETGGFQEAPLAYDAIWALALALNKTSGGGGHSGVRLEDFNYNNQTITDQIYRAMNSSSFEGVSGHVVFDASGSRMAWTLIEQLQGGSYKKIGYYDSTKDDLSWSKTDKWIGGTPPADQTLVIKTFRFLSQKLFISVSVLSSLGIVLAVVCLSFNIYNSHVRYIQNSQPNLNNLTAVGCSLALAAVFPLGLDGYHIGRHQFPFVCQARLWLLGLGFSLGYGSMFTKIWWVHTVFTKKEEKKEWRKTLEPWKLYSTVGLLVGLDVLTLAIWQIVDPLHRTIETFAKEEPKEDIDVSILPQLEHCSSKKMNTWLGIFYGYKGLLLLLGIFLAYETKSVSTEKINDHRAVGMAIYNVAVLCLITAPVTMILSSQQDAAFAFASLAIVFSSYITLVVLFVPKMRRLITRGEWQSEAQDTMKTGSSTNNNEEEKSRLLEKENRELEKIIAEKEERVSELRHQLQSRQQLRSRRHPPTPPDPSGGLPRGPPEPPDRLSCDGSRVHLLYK
Sequence of prejunctional GABAB receptors (H0V741 1-820 partner): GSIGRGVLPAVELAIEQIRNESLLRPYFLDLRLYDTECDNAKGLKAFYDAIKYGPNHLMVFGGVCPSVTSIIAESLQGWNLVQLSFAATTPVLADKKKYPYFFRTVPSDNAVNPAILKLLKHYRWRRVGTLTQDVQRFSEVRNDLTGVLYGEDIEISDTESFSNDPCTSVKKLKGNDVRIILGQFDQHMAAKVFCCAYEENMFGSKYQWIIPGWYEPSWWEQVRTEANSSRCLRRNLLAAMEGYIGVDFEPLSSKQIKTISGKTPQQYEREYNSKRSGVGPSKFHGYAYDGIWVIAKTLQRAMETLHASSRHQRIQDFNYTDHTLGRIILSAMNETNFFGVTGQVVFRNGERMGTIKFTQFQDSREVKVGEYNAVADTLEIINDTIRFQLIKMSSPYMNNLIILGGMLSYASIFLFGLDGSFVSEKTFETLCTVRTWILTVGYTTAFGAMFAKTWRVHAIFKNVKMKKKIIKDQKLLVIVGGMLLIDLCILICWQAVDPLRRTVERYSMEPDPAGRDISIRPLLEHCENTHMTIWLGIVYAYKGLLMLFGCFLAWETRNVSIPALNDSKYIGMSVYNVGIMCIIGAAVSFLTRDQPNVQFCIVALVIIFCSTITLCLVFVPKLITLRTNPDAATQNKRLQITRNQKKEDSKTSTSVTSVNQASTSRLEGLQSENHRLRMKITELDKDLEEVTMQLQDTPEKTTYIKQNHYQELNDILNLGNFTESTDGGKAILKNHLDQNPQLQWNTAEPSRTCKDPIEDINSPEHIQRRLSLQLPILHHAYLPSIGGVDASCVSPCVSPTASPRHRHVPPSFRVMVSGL
T1 sequence (Q9Z0U4 17-960 limits assumed): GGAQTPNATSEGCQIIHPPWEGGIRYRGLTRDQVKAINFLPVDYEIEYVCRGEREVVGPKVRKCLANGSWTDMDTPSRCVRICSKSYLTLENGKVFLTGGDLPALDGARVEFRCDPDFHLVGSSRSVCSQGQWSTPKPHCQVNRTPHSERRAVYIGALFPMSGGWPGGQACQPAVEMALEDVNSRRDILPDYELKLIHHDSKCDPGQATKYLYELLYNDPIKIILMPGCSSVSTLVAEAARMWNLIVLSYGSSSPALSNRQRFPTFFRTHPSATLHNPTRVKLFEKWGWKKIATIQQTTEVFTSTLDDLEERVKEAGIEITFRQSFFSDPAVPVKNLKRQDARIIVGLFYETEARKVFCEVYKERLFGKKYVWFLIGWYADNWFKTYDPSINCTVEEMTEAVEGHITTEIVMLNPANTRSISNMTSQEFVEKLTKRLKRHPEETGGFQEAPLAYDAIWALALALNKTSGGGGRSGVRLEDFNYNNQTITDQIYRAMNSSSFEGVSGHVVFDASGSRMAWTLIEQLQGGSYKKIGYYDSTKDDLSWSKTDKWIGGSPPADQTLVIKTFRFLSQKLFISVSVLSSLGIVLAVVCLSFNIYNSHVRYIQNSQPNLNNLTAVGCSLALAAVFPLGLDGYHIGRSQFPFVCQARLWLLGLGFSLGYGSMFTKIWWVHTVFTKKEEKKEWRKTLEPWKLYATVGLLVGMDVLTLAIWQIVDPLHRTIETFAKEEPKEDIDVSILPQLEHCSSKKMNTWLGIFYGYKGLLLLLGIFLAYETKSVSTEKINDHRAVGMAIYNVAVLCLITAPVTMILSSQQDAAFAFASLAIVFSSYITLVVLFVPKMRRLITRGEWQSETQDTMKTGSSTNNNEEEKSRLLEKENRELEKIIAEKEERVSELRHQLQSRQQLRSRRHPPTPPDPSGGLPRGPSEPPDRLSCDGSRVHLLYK
T1 sequence (O88871 41-940 partner): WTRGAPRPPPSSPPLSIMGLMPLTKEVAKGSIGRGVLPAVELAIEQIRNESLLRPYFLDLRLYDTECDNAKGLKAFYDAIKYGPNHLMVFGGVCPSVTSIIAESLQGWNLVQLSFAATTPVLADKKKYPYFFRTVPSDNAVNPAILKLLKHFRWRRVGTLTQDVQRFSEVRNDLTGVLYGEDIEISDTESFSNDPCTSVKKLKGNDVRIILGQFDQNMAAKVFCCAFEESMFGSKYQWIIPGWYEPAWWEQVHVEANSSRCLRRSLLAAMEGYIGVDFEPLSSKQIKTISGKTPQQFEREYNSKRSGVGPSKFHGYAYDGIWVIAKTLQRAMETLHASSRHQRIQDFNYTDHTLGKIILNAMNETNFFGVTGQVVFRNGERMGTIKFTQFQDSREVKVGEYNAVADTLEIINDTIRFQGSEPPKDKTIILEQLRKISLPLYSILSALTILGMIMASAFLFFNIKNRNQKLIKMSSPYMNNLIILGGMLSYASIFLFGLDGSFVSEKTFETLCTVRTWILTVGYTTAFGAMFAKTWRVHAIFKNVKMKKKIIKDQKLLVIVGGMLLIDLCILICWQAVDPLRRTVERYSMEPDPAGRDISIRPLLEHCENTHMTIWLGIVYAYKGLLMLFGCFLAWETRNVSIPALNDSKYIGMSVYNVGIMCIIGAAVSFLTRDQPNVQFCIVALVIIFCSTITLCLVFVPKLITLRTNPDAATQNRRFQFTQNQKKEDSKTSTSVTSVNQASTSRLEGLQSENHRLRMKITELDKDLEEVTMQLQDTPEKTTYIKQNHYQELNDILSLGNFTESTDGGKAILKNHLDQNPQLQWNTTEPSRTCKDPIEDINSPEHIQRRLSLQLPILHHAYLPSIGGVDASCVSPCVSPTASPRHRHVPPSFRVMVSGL

With `CP(=O)(O)CC1CN(Cc2ccccc2)CCO1` (stereo not drawn) [Example 23], the inhibition at 100 µM in data set [1] (100 μM) was 31%. At GABAB receptors (setting [5]), this molecule gave a 50% inhibitory concentration (IC50) of over 100 µM.
With `CC1(C)COC(CC(=O)O)CN1` (stereo not drawn) [Example 2], in data set [1], the 30% effect concentration (IC30) was found to be 1.5 µM and the inhibition at 300 µM was determined as 100%. Further, the inhibition at 100 µM in data set [1] (100 μM) is 96%. The molecule also came in with a concentration for half-maximal inhibition (IC50) at GABAB receptors (setting [5]) of 6 µM.
`O=C(O)CC1CNC2(CCCC2)CO1` (stereo not drawn) [Example 9]: in data set [1] (100 μM), the inhibition at 100 µM turned out to be 95%. The inhibition at 300 µM in data set [1] was 97%. On GABAB receptors (setting [5]), this molecule came in with a concentration for half-maximal inhibition (IC50) of 10 µM.
For the molecule `C[C@@]1(CO)CO[C@@H](CC(=O)O)CN1` (relative stereo) [Example 21], in data set [1], the IC30 stood at 0.85 µM.
As for `C[C@H]1CS[C@@H](CC(=O)O)CN1` (relative stereo) [Example 13B], the inhibition at 100 µM in data set [1] (100 μM) worked out at 55%. This molecule had an IC50 on GABAB receptors (setting [5]) of 60 µM.
On the same counts, the results for `O=C(O)CC1CNC2(CC2)CO1` (stereo not drawn) [Example 9A] are 76% and 37 ± 12 µM.
On to `C[C@]1(CO)CO[C@@H](CC(=O)O)CN1` (relative stereo) [Example 20], for which, in data set [1] (30 μM), the inhibition at 30 µM came to 24%. Besides, the 50% inhibitory concentration (IC50) on GABAB receptors (setting [5]) amounted to 3.8 µM.
`CC[C@H]1CO[C@H](CC(=O)O)CN1`: the inhibition at 100 µM in data set [1] (100 μM) worked out at 17%. At GABAB receptors (setting [5]), this molecule gave a half-inhibitory concentration (IC50) of over 100 µM.
For `NCC(CC(=O)O)c1ccc(Cl)cc1` (stereo not drawn) [Baclofen, reference compound], the Inhibition of ventilation is listed as 44-60% in data set [2] and 82 ± 5% in data set [3].
Consider `C[C@H]1CO[C@@H](CC(=O)O)CN1` (relative stereo) [Example 14], for which the inhibition at 100 µM in data set [1] (100 μM) turned out to be 74%. The inhibition at 300 µM in data set [1] came out at 95%. This molecule came in with a half-maximal inhibitory concentration (IC50) at GABAB receptors (setting [5]) of 20 µM.
As to `CC[C@]1(CO)CO[C@@H](CC(=O)O)CN1` (relative stereo) [Example 18], in data set [1] (100 μM), the inhibition at 100 µM turned out to be 50%. In addition, the 50% inhibitory concentration (IC50) at GABAB receptors (setting [5]) was 100 ± 40 µM.
On to `NCC(O)(CS(=O)(=O)O)c1ccc(Cl)cc1` (stereo not drawn) [2-hydroxy saclofen], for which the GABAB receptor affinity result in the data set with GABAB is “low affinity”.
With `CC[C@@H]1CO[C@H](CC(=O)O)CN1`, the inhibition at 100 µM in data set [1] (100 μM) worked out at 50%. For the same molecule, at GABAB receptors (setting [5]), the IC50 came to 100 µM.
In the case of `CCOC(OCC)P(=O)(O)CCCN` [CGP 35348, 3-aminopropyl(diethoxymethyl)phosphinic acid], the GABAB receptor affinity result in the data set on GABAB is listed as “low receptor affinity (comparable to 2-hydroxy saclofen)”. Besides, the “Penetration of the blood/brain barrier” value in data set [4] is reported as “can penetrate the blood/brain barrier”.
Turning to `CC[C@@]1(CO)CO[C@@H](CC(=O)O)CN1` (relative stereo) [Example 19], in data set [1] (100 μM), the inhibition at 100 µM was determined as 90%. The inhibition at 300 µM in data set [1] was 99%. This molecule also returned an IC50 at GABAB receptors (setting [5]) of 19 ± 10 µM.
For the molecule `CC1CNCC(CC(=O)O)S1` (stereo not drawn), the inhibition at 100 µM in data set [1] (100 μM) amounted to 21%. Also, at GABAB receptors (setting [5]), the IC50 was over 100 µM.
As to `O=C(O)CC1CNCCO1` (stereo not drawn), the inhibition at 100 µM in data set [1] (100 μM) amounted to 59%. Moreover, the inhibition at 300 µM in data set [1] is 46%. The molecule also yielded a 50% inhibitory concentration (IC50) on GABAB receptors (setting [5]) of 50 µM.
On the same counts, the results for `CC[C@@H]1CO[C@@H](CC(=O)O)CN1` [Example 11] are 82%, 95% and 14 µM.
Regarding `CC1(C)COC(CP(C)(=O)O)CN1` (stereo not drawn), the IC30 in data set [1] is 1.9 µM. Moreover, the inhibition at 100 µM in data set [1] (100 μM) is 100%. This molecule gave an IC50 at GABAB receptors (setting [5]) of 2 µM.
With `CC1(C)COC(CC(=O)O)CN1` (single isomer, unassigned) [Example 6B], in data set [1] (100 μM), the “In Vitro % inhibition” value was determined as 8%. In addition, the inhibition at 300 µM in data set [1] is 42%. In addition, at GABAB receptors (setting [5]), the IC50 is over 100 µM.
As for `C[C@@H]1CO[C@@H](CC(=O)O)CN1` (relative stereo) [Example 14A], the inhibition at 100 µM in data set [1] (100 μM) stood at 63%. In addition, the inhibition at 300 µM in data set [1] turned out to be 75%. The IC50 at GABAB receptors (setting [5]) was found to be 30 µM.
In the case of `O=C(O)CC1CNCCS1` (stereo not drawn) [Example 16], the inhibition at 100 µM in data set [1] (100 μM) worked out at 44%. This molecule also displayed an IC50 at GABAB receptors (unit inferred) of over 100 µM.
Turning to `C[C@@H]1CS[C@@H](CC(=O)O)CN1` (relative stereo) [Example 13C], the inhibition at 100 µM in data set [1] (100 μM) was 81%. The inhibition at 300 µM in data set [1] came out at 88%. For the same molecule, at GABAB receptors (setting [5]), the 50% inhibitory concentration (IC50) worked out at 20 µM.
On the same counts, the results for `CP(=O)(O)CC1CNCCO1` (stereo not drawn) [Example 24] are 100%, 98% and 6 µM.
In the case of `CP(=O)(O)CC1CNC2(CCCC2)CO1` (stereo not drawn), the 30% effect concentration (IC30) in data set [1] was found to be 3.3 µM. The half-inhibitory concentration (IC50) at GABAB receptors (setting [5]) turned out to be 3 µM.

The record behind these values is patent publication US5929236A, “2-substituted morpholine and thiomorpholine derivatives as GABA-B antagonists” (Schering Corporation, priority 1995, dated 1999).
